# Test results as given in patent publication US20240398823A1, “DUAL INHIBITOR OF HISTONE DEACETYLASE 6 AND HEAT SHOCK PROTEIN 90” (TAIPEI MEDICAL UNIVERSITY, priority 2021, published 2024).
# Tests used:
# [1] = tested on: HSP90 client proteins (HSP70, Src, AKT, Rb, FAK); test: Western blot of HSP70 and HSP90 client proteins in HCT116; assay type: cell-based, human; settings: HCT116, 0.25-1 μM, 48 hours
# Description: (§1) The ability of α-tubulin and histone H3 acetylation was measured.
# (§2) The effects of the HSP90/HDAC6 dual inhibitors as described in Synthesis Examples (such as Compounds 63, 64, and 66 to 76) on several factors were evaluated. Cells were lysed in RIPA buffer (Thermo Fisher Scientific, Wal-tham, MA, USA) and protease inhibitor (Roche, Basel, CH). Sample were further separated in 8% or 15% SDS-PAGE and transferred to nitrocellulose membrane and blocked with 5% skim milk (w/v in PBS). Nitrocellulose membranes were then incubated with primary antibodies against the following antigens: HSP90, Src, AKT, Rb, phosphorylated Rb (p-Rb), FAK, HSP70, α-tubulin acetylation, acetyl histone H3, phosphorylated STAT1 (p-STAT1), STAT1 (Cell signaling, Danvers, MA, USA), α-tubulin, Histone H3 (Genetex, Irvine, USA), IDO (Santa Cruz Biotechnology Dallas, TX, USA) and PD-L1 (Novus, Littleton, CO, USA) at 4° C. for overnight. The target proteins were visualized by using HRP-conjugated secondary antibodies (Jackson ImmunoResearch Laboratories, West Grove, PA, USA) and enhanced chemiluminescence kit (Thermo Fisher Scientific, Waltham, MA, U.S.A.).
# (§3) The ability of Compound 75 on the acetylation of α-tubulin and histone H3 was evaluated. HCT116 cells were administered with Compound 75 for 6 hours and analyzed by western blot. […] Next, whether Compound 75 inhibited HSP90 was evaluated. […]
# [2] = tested on: acetylation of α-tubulin and histone H3; test: Western blot of α-tubulin and histone H3 acetylation in HCT116; assay type: cell-based, human; settings: HCT116, 0.25-1 μM, 6 hours
# Description: as §1, §2, §3
# [3] = tested on: PD-L1 and IDO expression in tumor region (CT26); test: IHC of PD-L1 and IDO in CT26 tumor region; assay type: in vivo, mouse; settings: CT26 tumors, day 25, IHC, 10, 25, 50 mg/kg
# Description: The tumors were removed and immunohistochemically stained at 25 days after intravenous tail injection in mice with colorectal cancer tumors. […] Bar, SD.
# (§4) The effects of the HSP90/HDAC6 dual inhibitors as described in Synthesis Examples (such as Compounds 63, 64, and 66 to 76) on several factors were evaluated. IHC-Paraffin: Tumor tissues were excised from the mice, fixed in 4% formaldehyde solution in PBS, and embedded in paraffin. Sections of 4-5 μm were cut and placed in an oven at 60° C. for overnight. After deparaffinizing and rehydrating the section, the antigen retrieval was performed with citrate buffer (10 mM citrate acid, pH 6) or Tris buffer (10 mM Tris, 1 mM EDTA, pH9) by autoclave for 30 min at 121 C. The sections were blocked with 10% goat serum and then incubated with primary antibodies against the following antigens: IDO (Santa Cruz Biotechnology Dallas, TX, USA), CD8 (Novus, Littleton, CO, USA) and granzyme B (Abcam, Cambridge, UK) at 4 C for overnight. IHC— Frozen for PD-L1: Tumor tissues were collected from the mice, embedded in OCT compound (Sakura Finetek, Torrance, CA, U.S.A.). […] Images of the tumor tissues sections were captured by Mirax Scan (CARL ZEISS, Germany) or TissueFAXS (Vienna, Austria) and analyzed by HistoQuest software (Vienna, Austria).
# Compound 75 was evaluated to determine its ability to reduce PD-L1 and IDO in the tumor microenvironment.
# [4] = tested on: CT26 tumor recurrence; test: CT26 tumor recurrence after tumor removal and re-inoculation; assay type: in vivo, mouse; settings: 50 mg/kg every two days, day 37
# Description: Stage 1: CT26 was injected subcutaneously into the left dorsum of immunocompetent mice (BALB/c), and Compound 75 treatment was started after 3 days, administered intravenously at a dose of 50 mg/kg every two days (7 doses in total). After tumor removal, tumor cells were isolated for in vitro culture (untreated tumor control-tumor; Compound 75-treated tumor: Compound 75-tumor). Stage 2: On day 17, the isolated tumor cells were injected subcutaneously into the right side of the mouse back and the mice were sacrificed on day 37 (as shown in FIG. 14A). […] Data are mean t S.E.M. N values greater than 4.
# Whether Compound 75 induces the performance of memory T cells to prevent tumor recurrence was further investigated. Mouse colorectal cancer cells (CT26) were inoculated into the back of immunocompetent mice (BALB/c) and gave control or Compound 75 (50 mg/kg) every two days after 3 days, and removed the tumors on day 14. The cancer cells were isolated and cultured in vitro. The isolated cancer cells were re-injected into the back of the mice on day 17 and the mice were sacrificed on day 37 (FIG. 14A). […] However, in the control group (control/control-tumor), 4 out of 5 cancer recurrences occurred and the tumors were larger (FIGS. 14B, 14C and 14D).
# [5] = tested on: CD8 cells and granzyme B in mouse tumor area; test: IHC of CD8 cell infiltration and granzyme B in CT26 tumor area; assay type: in vivo; settings: CT26 tumors, day 25, IHC, 10, 25, 50 mg/kg
# Description: The tumors were removed from mice on day 25 and embedded in paraffin and sectioned for immunohistochemical staining. […] Bar, SD.
# as §4, with “overnight.” for “overnight. IHC— Frozen for PD-L1: Tumor tissues were collected from the mice, embedded in OCT compound (Sakura Finetek, Torrance, CA, U.S.A.).”
# It is known that TME blocks the infiltration of functional immune cells into the tumor area. The effects of Compound 75 on CD8 cell infiltration in the tumor area were evaluated. […] Therefore, the ability of CD8+ T cells to secrete granzyme B was evaluated.
# [6] = Toxicity, body weight and blood counts in BALB/c mice with CT26 tumors; assay type: in vivo
# [7] = CT26 in Balb/c, 10, 25, 50 mg/kg i.v. every two days
structure (smiles),measurement,setting,value
"COc1ccc(N(Cc2ccc(C(=O)NO)cc2)C(=O)c2cc(C(C)C)c(O)cc2O)cc1 [Compound 75, 2,4-Dihydroxy-N-(4-hydroxycarbamoyl-benzyl)-5-isopropyl-N-(4-methoxy-phenyl)-benzamide]",HSP70 expression,[1],an increase in HSP70 expression
same,"protein levels of client proteins (Src, AKT, Rb and FAK)",[1],a downregulation of the protein levels of client proteins
same,acetylation of α-tubulin and histone H3,[2],enhances the acetylation of α-tubulin and histone H3
same,PD-L1 and IDO expressions in the tumor region,[3],reduces PD-L1 and IDO expressions
same,"cancer recurrence, re-inoculated with Compound 75-treated cancer cells",[4]; group comp.75/comp.75-tumor,only one mouse suffered cancer recurrence
same,"cancer recurrence, re-inoculated with control cancer cells",[4]; group comp.75/control-tumor,only one mouse suffered cancer recurrence
same,CD8 immune cell infiltration in the mouse tumor area,[5],significantly increased
same,granzyme B secretion,[5],concentration-dependent increase
same,body weight,[6]; [7],no significant change in body weight
same,toxicity in mice,[6]; [7],no significant toxicity
same,"white blood cell, lymphocyte, red blood cell, hemoglobin and platelet counts, lymphocyte percentage","[6]; blood from heart on day 25, 10, 25, 50 mg/kg every two days, versus control group",not significantly different
same,organ toxicity or hematotoxicity,[6]; immunocompetent mice,does not cause significant organ toxicity or hematotoxicity
